Reference: the NIST ThermoML archive (doi:10.1016/j.fluid.2016.08.041)
Numbers after ± are expanded uncertainties.

Columns and labels:
[1] = refractive index (Na D-line) (dimensionless); details: 298.2 K; 101.33 kPa; Liquid; Standard Abbe refractometry
[2] = 298.2 K; 101.33 kPa; Liquid; Vibrating tube method

Structure (SMILES)	refractive index [1]	mass density [2]
CCOC(=O)CCC(=O)OCC [diethyl butanedioate]	1.41967 ± 0.00042	1035.34 ± 0.4 kg/m3
CCCCC(=O)OCC [ethyl pentanoate]	1.39841 ± 0.00042	872.36 ± 0.36 kg/m3
CC(C)CCO [3-methylbutan-1-ol]	1.40528 ± 0.00042	807.16 ± 0.35 kg/m3
CCOC(=O)CCCCCCCCC(=O)OCC [diethyl decanedioate]	1.43485 ± 0.00042	959.18 ± 0.37 kg/m3

Other lines, results leading:

refractive index [1]	mass density [2]	Structure (SMILES)
1.36939 ± 0.00042	1214.1 ± 0.51 kg/m3	O=CO [formic acid]
1.41572 ± 0.00042	862.23 ± 0.36 kg/m3	CCCCCCCC(=O)OCC [ethyl octanoate]
